The text below walks through data of patent publication US9963462B2 (priority 2015, dated 2018).

Test [1] has as its system BH4 production in human peripheral blood mononuclear cells (PBMCs). As to the kind of experiment: hPBMC assay, inhibition of BH4 production by LC-MS (anti-CD3/anti-CD28 stimulated). Type of test: cell-based. Particulars: PBMC, read-out: hPBMC IC50.
Protocol: hPBMC Assay: PBMCs were either purchased or isolated from fresh human blood and used either as a fresh preparation or frozen for later use. The assay system was prepared by pre-treating the assay plates overnight with a solution containing anti-human CD3 antibody. Human PBMCs were suspended in assay medium and plated into the assay plates at a density of 1-4×10^5 cells per well. The desired concentration of the test compound was added to each well. A solution of human anti-CD28 antibody was also added to each well. Plates were incubated for 12-48 hours at 37° C. and 5% CO2. Assay plates were centrifuged for 5-15 minutes at 1-3000 RMP and supernatants were removed. The cells were lysed, sealed and used directly or frozen at −80° C. LC-MS was used to quantify the amount of inhibition of BH4 production.
PBMCs were either purchased or isolated from fresh human blood and used either as a fresh preparation or frozen for later use. The assay system was prepared by pre-treating the assay plates overnight with a solution containing anti-human CD3 antibody. Human PBMCs were suspended in assay medium and plated into the assay plates at a density of 1-4×10^5 cells per well. The desired concentration of the test compound was added to each well. A solution of human anti-CD28 antibody was also added to each well. Plates are incubated for 12-48 hours at 37° C. and 5% CO2. Assay plates were centrifuged for 5-15 minutes at 1-3000 RMP and supernatants were removed. The cells were lysed, sealed and used directly or frozen at −80° C.
The test system of test [2] is BH4 levels in SK-N-BE (2) cells. The test is described as follows: SKN-N-BE (2) cellular assay, BH4 levels by LC-MS. Type of test: cell-based. Particulars: Homo sapiens, SKNBE2, read-out: SK-N-BE(2) IC50, SK-N-BE (2) cells, BH4 levels by LC-MS.
Protocol: SKN-N-BE(2) Cellular Assay: SK-N-BE (2) cells were seeded in sterile, 96-well plates and incubated for 12-24 hours at 37° C. with 5% CO2 supply. Media was removed and fresh DMEM/F-12 media (containing Glutamine & Pen/Strep but no FBS) was added. Compounds (at different concentrations) were added to different wells. The plates were then incubated for 6-48 hours at 37° C. with 5% CO2 supply. Plates were then centrifuged and the supernatant was removed. The plates were then optionally washed once with PBS. They were then sealed and stored at −80° C. or immediately used. The cells were lysed and the level of BH4 was assessed by LC-MS.
Compounds were assayed for SPR inhibitory activity using a SKN-N-BE (2) cellular assay according to the following procedure. SK-N-BE (2) cells were seeded in sterile, 96-well plates and incubated for 12-24 hours at 37° C. with 5% CO2 supply. Media was removed and fresh DMEM/F-12 media (containing Glutamine & Pen/Strep but no FBS) was added. Compounds (at different concentrations) were added to different wells. The plates were then incubated for 6-48 hours at 37° C. with 5% CO2 supply. Plates were then centrifuged and the supernatant was removed. The plates were then optionally washed once with PBS. They were then sealed and stored at −80° C. or immediately used in the next step. The cells were lysed and the levels of BH4 were assessed by LC-MS.
For test [3], the target named is SNAP-hSPR (sepiapterin reductase, SPR) (Homo sapiens, UniProt P35270). As to the kind of experiment: biochemical. It is filed as binding. Particulars: terbium labelled SNAP-hSPR / SSZ labelled SNAP-EGFP; read-out: hTR-FRET IC50.
Sequence of SNAP-hSPR (sepiapterin reductase, SPR) (P35270 whole entry): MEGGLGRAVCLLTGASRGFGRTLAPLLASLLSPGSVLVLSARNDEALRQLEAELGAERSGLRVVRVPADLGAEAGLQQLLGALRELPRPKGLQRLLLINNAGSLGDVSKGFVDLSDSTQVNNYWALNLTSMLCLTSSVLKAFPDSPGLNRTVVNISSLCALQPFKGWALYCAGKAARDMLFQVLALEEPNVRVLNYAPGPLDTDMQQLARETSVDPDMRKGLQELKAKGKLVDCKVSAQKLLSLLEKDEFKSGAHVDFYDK

Take `Cc1c(C(=O)N2CC(N(C)C(=O)OC(C)(C)C)C2)cnn1-c1nn2cccc2c(=O)[nH]1` [Q-0850]: the IC50 in test [1] amounted to 74 nM; in test [2] it was 300 nM; in test [3] it was 1 nM.
Turning to `Cc1c(C(=O)N2CC[C@H](N(C)C(=O)OC(C)(C)C)C2)cnn1-c1nn2cccc2c(=O)[nH]1` [Q-0851], the IC50 was 130 nM in test [1], 500 nM in test [2] and 2 nM in test [3].
The like results for `Cc1c(C(=O)N2CC(C)(NC(=O)OC(C)(C)C)C2)cnn1-c1nn2cccc2c(=O)[nH]1` [Q-0867] were, in that order, 70 nM, 400 nM and 2 nM.
As for `Cc1c(C(=O)N2CCN(C(=O)OC(C)(C)C)C(C)C2)cnn1-c1nn2cccc2c(=O)[nH]1` (stereo not drawn) [Q-0887], the values for the IC50 in test [1], in test [2] and in test [3] were 57 nM, 200 nM and 1 nM, respectively.
Take `Cc1c(C(=O)N2CCN(C(C)(C)C)CC2)cnn1-c1nn2cccc2c(=O)[nH]1` [Q-0888]: the IC50 amounted to 240 nM in test [1], 400 nM in test [2] and 5 nM in test [3].
The matching figures for `Cc1c(C(=O)N2CC3(CN(CC(F)(F)F)C3)C2)cnn1-c1nn2cccc2c(=O)[nH]1` [Q-0891]: 240 nM, 900 nM and 4 nM.
Consider `Cc1c(C(=O)N2CCN(C(=O)OC(C)(C)C)C[C@H]2C)cnn1-c1nn2cccc2c(=O)[nH]1` [Q-0892], for which the IC50 in test [1] was found to be 76 nM; in test [2], 400 nM; in test [3], 2 nM.
Regarding `Cc1c(C(=O)N2C[C@@H]3CCC(F)(F)[C@@H]3C2)cnn1-c1nn2cccc2c(=O)[nH]1` [Q-0896], the values for the IC50 in test [1], in test [2] and in test [3] were 49 nM, 300 nM and 1 nM, respectively.
Consider `Cc1c(C(=O)N2CCN(C(=O)OC(C)(C)C)[C@H](C)C2)cnn1-c1nn2cccc2c(=O)[nH]1` [Q-0899], for which the IC50 is 48 nM in test [1], 300 nM in test [2] and 1 nM in test [3].
Regarding `Cc1c(C(=O)N2CCN3CC(F)(F)C[C@H]3C2)cnn1-c1nn2cccc2c(=O)[nH]1` [Q-0906], the IC50 worked out at 190 nM in test [1], 800 nM in test [2] and 3 nM in test [3].
The like results for `Cc1c(C(=O)N2CCN(CC(F)(F)F)C(C)C2)cnn1-c1nn2cccc2c(=O)[nH]1` (stereo not drawn) [Q-0908] were, in that order, 130 nM, 300 nM and 1 nM.
Regarding `Cc1c(C(=O)N2C3CCC2CC(F)(F)C3)cnn1-c1nn2cccc2c(=O)[nH]1` [Q-0910], the IC50 in test [1] is 74 nM; in test [2], 500 nM; in test [3], 2 nM.
For `Cc1c(C(=O)N2CCC3(CC2)CC3C(=O)N2CCCC2)cnn1-c1nn2cccc2c(=O)[nH]1` (stereo not drawn) [Q-0911], the IC50 was found to be 110 nM in test [1], 400 nM in test [2] and 2 nM in test [3].
In the case of `Cc1c(C(=O)N2CCN(C(=O)OC(C)(C)C)C[C@@H]2C)cnn1-c1nn2cccc2c(=O)[nH]1` [Q-0915], the values for the IC50 in test [1], in test [2] and in test [3] were 92 nM, 500 nM and 2 nM, respectively.
The matching figures for `Cc1c(C(=O)N2CCC3OCCCC3C2)cnn1-c1nn2cccc2c(=O)[nH]1` (stereo not drawn) [Q-0917]: 100 nM, 700 nM and 3 nM.
Regarding `Cc1c(C(=O)N2CCN(CC#N)CC2)cnn1-c1nn2cccc2c(=O)[nH]1` [Q-0918], the values for the IC50 in test [1], in test [2] and in test [3] were 120 nM, 600 nM and 2 nM, respectively.
For `Cc1c(C(=O)N2CCC3(CC3)C2)cnn1-c1nn2cccc2c(=O)[nH]1` [Q-0921], the IC50 in test [1] stood at 47 nM; in test [2] it was 400 nM; in test [3], 2 nM.
Consider `Cc1c(C(=O)N2CCC3(CC2)CN(C(=O)OC(C)(C)C)C3)cnn1-c1nc2c(c(=O)[nH]1)CCC2` [Q-0924], for which the IC50 in test [1] worked out at 51 nM; in test [2], 200 nM; in test [3], 2 nM.
The matching figures for `Cc1c(C(=O)N2CCC(C(F)F)CC2)cnn1-c1nn2cccc2c(=O)[nH]1` [Q-0926]: 45 nM, 200 nM and 1 nM.
`Cc1c(C(=O)N2CC3C(C2)C3(C)C)cnn1-c1nn2cccc2c(=O)[nH]1` (stereo not drawn) [Q-0927]: the IC50 was 81 nM in test [1], 200 nM in test [2] and 1 nM in test [3].
`Cc1c(C(=O)N2CCC3(CC2)CC3C(=O)N(C)C2CC2)cnn1-c1nn2cccc2c(=O)[nH]1` (stereo not drawn) [Q-0930]: the half-inhibitory concentration (IC50) in test [1] was 58 nM; in test [2], 300 nM; in test [3] it was 1 nM.
In the case of `Cc1c(C(=O)N2CC(N3CCC(F)(F)C3)C2)cnn1-c1nc2c(c(=O)[nH]1)CCC2` [Q-0937], the IC50 in test [1] worked out at 130 nM; in test [2] it was 800 nM; in test [3], 4 nM.
With `Cc1c(C(=O)N2CCC(n3cccc3)CC2)cnn1-c1nn2cccc2c(=O)[nH]1` [Q-0941], the 50% inhibitory concentration (IC50) in test [1] stood at 13 nM; in test [2] it was 300 nM; in test [3], 1 nM.
Take `Cc1c(C(=O)N2CCC(C3(C(F)(F)F)CC3)CC2)cnn1-c1nc2c(c(=O)[nH]1)CCC2` [Q-0943]: the IC50 was 38 nM in test [1], 18 nM in test [2] and 2 nM in test [3].
With `Cc1c(C(=O)N2CCC(C3(C(F)(F)F)CC3)CC2)cnn1-c1nn2cccc2c(=O)[nH]1` [Q-0944], the results for the IC50 in test [1], in test [2] and in test [3] were 36 nM, 28 nM and 1 nM, respectively.
On to `Cc1c(C(=O)N2CCC(C3(C#N)CC3)CC2)cnn1-c1nc2c(c(=O)[nH]1)CCC2` [Q-0948], for which the IC50 in test [1] worked out at 53 nM; in test [2], 100 nM; in test [3], 1 nM.
The like results for `Cc1c(C(=O)N2CC3(CCN(CC(F)(F)F)CC3)C2)cnn1-c1nn2cccc2c(=O)[nH]1` [Q-0951] were, in that order, 45 nM, 400 nM and 2 nM.
The like results for `Cc1c(C(=O)N2CCC(C#N)(c3ccccn3)CC2)cnn1-c1nn2cccc2c(=O)[nH]1` [Q-0952] were, in that order, 83 nM, 300 nM and 1 nM.
With `Cc1c(C(=O)N2CCC(c3noc(C4CC4)n3)CC2)cnn1-c1nn2cccc2c(=O)[nH]1` [Q-0953], the IC50 in test [1] amounted to 21 nM; in test [2], 58 nM; in test [3] it was 1 nM.
For the compound `Cc1c(C(=O)N2CCN(C(C)C(F)(F)F)CC2)cnn1-c1nn2cccc2c(=O)[nH]1` (stereo not drawn) [Q-0956], the IC50 in test [1] came to 14 nM; in test [2], 86 nM; in test [3], 1 nM.
For `Cc1c(C(=O)N2CCC(c3nccs3)CC2)cnn1-c1nn2cccc2c(=O)[nH]1` [Q-0969], the results for the IC50 in test [1], in test [2] and in test [3] were 160 nM, 200 nM and 1 nM, respectively.
On to `Cc1c(C(=O)N2CC3CCCC(C2)N3C(=O)OC(C)(C)C)cnn1-c1nn2cccc2c(=O)[nH]1` [Q-0972], for which the results for the half-inhibitory concentration (IC50) in test [1], in test [2] and in test [3] were 14 nM, 65 nM and 1 nM, respectively.
The matching figures for `COC1(C)CCN(C(=O)c2cnn(-c3nn4cccc4c(=O)[nH]3)c2C)CC1` [Q-0973]: 80 nM, 700 nM and 1 nM.
In the case of `Cc1c(C(=O)N2CCC(S(=O)(=O)C(C)C)CC2)cnn1-c1nn2cccc2c(=O)[nH]1` [Q-0977], the IC50 is 86 nM in test [1], 500 nM in test [2] and 1 nM in test [3].
For `C=CCC(C#N)C1CCN(C(=O)c2cnn(-c3nn4cccc4c(=O)[nH]3)c2C)CC1` (stereo not drawn) [Q-0978], the IC50 in test [1] was 59 nM; in test [2], 81 nM; in test [3], 1 nM.
For `Cc1c(C(=O)N2CCC(C#N)(CC(F)(F)F)CC2)cnn1-c1nn2cccc2c(=O)[nH]1` [Q-0986], the IC50 in test [1] stood at 110 nM; in test [2] it was 700 nM; in test [3], 2 nM.
For the compound `Cc1c(C(=O)N2CCCN(CC(F)(F)F)CC2)cnn1-c1nn2cccc2c(=O)[nH]1` [Q-0992], the figures for the IC50 in test [1], in test [2] and in test [3] were 98 nM, 800 nM and 3 nM, respectively.
`Cc1c(C(=O)N2CC(N3CCCC(F)(F)C3)C2)cnn1-c1nn2cccc2c(=O)[nH]1` [Q-0993]: the IC50 in test [1] came out at 160 nM; in test [2], 1100 nM; in test [3] it was 3 nM.
`Cc1c(C(=O)N2CCC(N3CCC(F)(F)CC3)CC2)cnn1-c1nn2cccc2c(=O)[nH]1` [Q-0995]: the 50% inhibitory concentration (IC50) in test [1] is 180 nM; in test [2], 600 nM; in test [3], 2 nM.
`Cc1c(C(=O)N2CCC3(CC2)CC(F)C3)cnn1-c1nn2cccc2c(=O)[nH]1` [Q-0998]: the results for the IC50 in test [1], in test [2] and in test [3] were 92 nM, 300 nM and 1 nM, respectively.
In the case of `Cc1c(C(=O)N2CCC(c3cccnc3F)CC2)cnn1-c1nn2cccc2c(=O)[nH]1` [Q-1003], the values for the IC50 in test [1], in test [2] and in test [3] were 51 nM, 100 nM and 1 nM, respectively.
As to `Cc1c(C(=O)N2CCC3(CC2)CC3)nnn1-c1nn2cccc2c(=O)[nH]1` [Q-1005], the figures for the IC50 in test [1], in test [2] and in test [3] were 100 nM, 300 nM and 1 nM, respectively.
Turning to `Cc1c(C(=O)N2CCN(CC(F)(F)F)CC2)nnn1-c1nn2cccc2c(=O)[nH]1` [Q-1007], the figures for the IC50 in test [1], in test [2] and in test [3] were 120 nM, 500 nM and 1 nM, respectively.
For `Cc1c(C(=O)N2CCN(CC3CCC3)[C@H](C)C2)cnn1-c1nn2cccc2c(=O)[nH]1` [Q-1020], the IC50 in test [1] amounted to 200 nM; in test [2] it was 300 nM; in test [3], 2 nM.
The matching figures for `Cc1c(C(=O)N2CCN(C3CC3)CC2)cnn1-c1nc2c(c(=O)[nH]1)CCC2` [Q-1022]: 41 nM, 100 nM and 2 nM.
Consider `Cc1c(C(=O)N2CC3(C2)CC(F)(F)C3)nnn1-c1nn2cccc2c(=O)[nH]1` [Q-1024], for which the IC50 in test [1] was determined as 56 nM; in test [2] it was 300 nM; in test [3], 1 nM.
